In brackets after ≈: the same amount, converted by molar mass. Activity calls are given as the source filed them. No cut-off for these calls is given here. Bridge positions count the residues as written; N and C are the ends. Square brackets hold non-standard residues; d marks the D form. Peptide text beside a SMILES is read from it. S5 = C=CCCC[C@](C)(N)C(=O)O
Experiments:
Acinetobacter baumannii = assay: Antibacterial activity against Pandrug-resistant Acinetobacter baumannii assessed as inhibition of bacterial growth measured after 24 hrs by broth microdilution method; type: functional
Klebsiella pneumoniae = assay: Antibacterial activity against Carbapenem-resistant Klebsiella pneumoniae assessed as inhibition of bacterial growth measured after 24 hrs by broth microdilution method; type: functional
Pseudomonas aeruginosa = assay: Antibacterial activity against Carbapenem-resistant Pseudomonas aeruginosa assessed as inhibition of bacterial growth measured after 24 hrs by broth microdilution method; type: functional
Cell membrane = assay: Induction of Inner membrane damage in Escherichia coli assessed as increase in […] ONPG intensity at 5 uM measured after 24 hrs incubation by microplate reader based inner membrane permeability assay; type: subcellular
Escherichia coli [1] = assay: Induction of outer membrane synthesis related pathways in Escherichia coli assessed as change in OmpX gene expression at 12.5 uM measured after 2 hrs incubation by PCR analysis; type: functional, organism-based
Escherichia coli [2] = assay: Induction of outer membrane synthesis related pathways in Escherichia coli assessed as change in OmpT gene expression at 12.5 uM measured after 2 hrs incubation by PCR analysis; type: functional, organism-based
Escherichia coli [3] = assay: Induction of assembly related pathways in Escherichia coli assessed as change in OmpW gene expression at 12.5 uM measured after 2 hrs incubation by PCR analysis; type: functional, organism-based
Escherichia coli [4] = assay: Induction of assembly related pathways in Escherichia coli assessed as change in BamA gene expression at 12.5 uM measured after 2 hrs incubation by PCR analysis; type: functional, organism-based
Escherichia coli [5] = assay: Induction of assembly related pathways in Escherichia coli assessed as change in BamD gene expression at 12.5 uM measured after 2 hrs incubation by PCR analysis; type: functional, organism-based
[6] = Toxicity in C57BL/6 mouse assessed as death at 25 mg/kg, ip measured during 14 days of study; type: organism-based; conditions: in vivo, 336 h, time 14 day
[7] = Toxicity in C57BL/6 female mouse assessed as juxtaglomerular cells and interstitial fibrous tissues in kidney at 25 mg/kg, ip measured during 14 days of study by H and E staining based analysis; type: organism-based; conditions: in vivo, 336 h, time 14 day
Escherichia coli [8] = assay: In vivo antibacterial activity against Escherichia coli intraperitoneally injected into C57BL/6 mouse peritonitis model assessed as reduction in bacterial load in lung at 2.5 mg/kg, ip measured after 48 hrs relative to control; type: functional, organism-based
Escherichia coli [9] = assay: In vivo antibacterial activity against Escherichia coli intraperitoneally injected into C57BL/6 mouse peritonitis model assessed as reduction in bacterial load in kidney at 2.5 mg/kg, ip measured after 48 hrs relative to control; type: functional, organism-based
Mus musculus [10] = assay: In vivo anti-inflammatory efficacy in Escherichia coli intraperitoneally injected into C57BL/6 mouse peritonitis model assessed as reduction in IL-1beta level in blood at 2.5 mg/kg, ip measured after 48 hrs by ELISA; type: functional, organism-based
Mus musculus [11] = assay: In vivo anti-inflammatory efficacy in Escherichia coli intraperitoneally injected into C57BL/6 mouse peritonitis model assessed as reduction in TNF-alpha level in blood at 2.5 mg/kg, ip measured after 48 hrs by ELISA; type: functional, organism-based

Work on CC[C@H](C)[C@H](NC(=O)CNC(=O)[C@H](CC(=O)O)NC(=O)[C@H](CCCNC(=N)N)NC(=O)[C@@H](NC(=O)[C@H](CC(N)=O)NC(=O)[C@H](CCC(N)=O)NC(=O)CNC(=O)[C@@H](NC(=O)[C@H](CCCCN)NC(=O)[C@H](CCC(=O)O)NC(=O)[C@@H](NC(=O)[C@H](CCCCN)NC(=O)[C@H](CCCCN)NC(=O)[C@H](Cc1ccccc1)NC(=O)[C@H](CC(C)C)NC(=O)[C@H](CCCCN)NC(=O)[C@H](Cc1c[nH]c2ccccc12)NC(=O)[C@H](CCCCN)NC(C)=O)[C@@H](C)CC)C(C)C)[C@@H](C)CC)C(=O)N[C@H](C(=O)N[C@@H](CCCCN)C(=O)N[C@@H](C)C(=O)NCC(=O)N1CCC[C@H]1C(=O)N[C@@H](C)C(=O)N[C@H](C(=O)N[C@@H](C)C(=O)N[C@H](C(=O)N[C@H](C(=O)NCC(=O)N[C@@H](CCC(N)=O)C(=O)N[C@@H](C)C(=O)N[C@@]1(C)CCC/C=C\CCC[C@@](C)(C(N)=O)NC(=O)[C@H](C)NC(=O)[C@H]([C@@H](C)CC)NC(=O)[C@H](CCC(N)=O)NC1=O)C(C)C)C(C)C)C(C)C)[C@@H](C)CC (Ac-KWKLFKKIEKVGQNIRDGIIKAGPAVAVVGQA[S5]QIA[S5]-NH2; staple (Z) 33-37) yielded an MIC (Acinetobacter baumannii) of under 0.78 µM, an MIC (Klebsiella pneumoniae) of 6.25 µM (≈ 25.4 µg/mL) and an MIC (Pseudomonas aeruginosa) of over 100 µM. The Activity (Cell membrane) was “Active”, the Activity (Escherichia coli [1]) was “Active” and the Activity (Escherichia coli [2]) was “Active”. For the same molecule, the Activity (Escherichia coli [3]) was “Active”, the Activity (Escherichia coli [4]) was “Active” and the Activity (Escherichia coli [5]) was “Active”. The Activity [6] was “Non-toxic”, the Activity [7] was “Non-toxic” and the Activity (Escherichia coli [8]) was “Active; Compound Showed Enhanced Bacterial Elimination Than Cec-0”. For the same molecule, the Activity (Escherichia coli [9]) was “Active; Compound Showed Enhanced Bacterial Elimination Than Cec-0 And Compound Showed Comparable Bacterial Elimination To Polymyxin B”, the Activity (Mus musculus [10]) was “Active” and the Activity (Mus musculus [11]) was “Active”.
